The source of these data is patent publication US20210000981A1, “CONJUGATED POLYCATIONIC POLYMERS, METHODS OF USING THE SAME AND METHODS OF TREATING AUTOIMMUNE DISEASES, INFECTIOUS DISEASES AND ACUTE RADIATION EXPOSURE” (Duke University, priority 2015, published 2021).

In one data set the test system is NZBW F1 mice. Conditions: mouse, in vivo.
Data set [1] concerns NA-sensing TLRs (TLR3, 7, 8 and 9). The data set is described as follows: Inhibition of nucleic acid based TLR agonists by NASs. Conditions: in vitro and in vivo.
For the next data set, the system named is DNA in plasmid form. The data set is described as follows: Plasmid DNA binding and LMWH displacement, agarose gel. To be noted: 60° C. with agitation. The method, then:
Using the biotinylated form of the polymer we have established a protocol to displace the DAMPs that are bound to the polymer using low-molecular weight heparin (LMWH). This method was validated by electrophoretic mobility shift assay (EMSA) and TLR stimulation.
(§1) DNA in plasmid form was bound to PAMAM-G3 via co-incubation at room temperature. […] LMWH displacement was executed at 60° C. with agitation of the DNA-polymer complex.

A further data set concerns TLR. Description: TLR reporter cell assays with DNA-polymer complex and LMWH. It counts as cell-based. The method, then:
as §1

“[NH2(CH2)2NH2]:(G=3); dendri PAMAM(NH2)32 [PAMAM-G3]”: the “maximum tolerated dose (MTD)” value in the data set with NZBW F1 mice was in the range of 100 to 200 mg/kg.

As to protamine sulfate, in data set [1], the “activities of nucleic acid based TLR agonists (CpG oligos, Poly I:C, ssRNA40/LyoVec)” value is “counteract the activities of multiple nucleic acid based TLR agonists in vitro and in vivo”.

In the case of low-molecular weight heparin [LMWH], the “displacement of DNA from DNA-polymer complex” value with DNA in plasmid form is on record as “Displacement of the DNA was also verified”. In the data set on TLR, the “TLR activation after displacement of DNA from polymer” value is on record as “elevated TLR activation” and the “TLR activation, alone” value was “no activation alone”.
